From patent US11524010B2, “Substituted quinazoline sulfonamides as thioredoxin interacting protein (TXNIP) inhibitors” (SOUTHERN RESEARCH INSTITUTE, priority 2017, dated 2022)
Entries after “also recorded” stand apart in the source; their conditions may differ.

How the values were obtained:
alpha TC1-6 cells = experiment: Glucagon secretion of alpha TC1-6 cells; format: cell-based; settings: incubation of alpha TC1-6 cells with compound
STZ-diabetic mice = experiment: Multiple low-dose STZ-induced diabetes in mice; format: in vivo
Protocol: After having been rendered overtly diabetic by multiple low-dose STZ injections, mice received compound #11a by gavage at a dose of 100 mg/kg b.i.d or 30 mg/kg b.i.d. or received a vehicle control.

db/db mice = experiment: Obese diabetic db/db mice (Type 2 diabetes model); format: in vivo; settings: oral, 4 weeks
Protocol: Obese, insulin-resistant and diabetic, leptin receptor-deficient db/db mice were administered compound #11a as described above for 4 weeks. […] In addition, they can lower liver and serum lipid levels

INS-1 cells = experiment: INS-1 cell viability (Cell Titer-Glo, ATP); format: cell-based, Rat; settings: 72 hrs treatment, hydrochloride
Protocol: (§1) INS-1 cell viability was determined based on quantification of ATP using Cell Titer-Glo Luminescent Cell Viability Assay kit (Promega #G7572), which indicates the presence of metabolically active cells. Briefly, INS-1 cells were seeded into 96-well plates at a cell density of 4.5×10^4 and 3.5×10^4 cells per well and incubated overnight at 37° C. with 5% CO2. On the following day, cells were treated with compounds for 24 hrs and 72 hrs respectively. Cell Titer-Glo reagent was added to the cells and Luminescence was acquired on Synergy 4 Reader ([…]).

TXNIP [1] = experiment: Inhibition of glucose-induced endogenous TXNIP expression in INS-1 cells (qRT-PCR); format: cell-based, Rat; settings: 25 mM glucose; for inhibition at 1.5 µM / inhibition at 12.5 µM: Rattus norvegicus, INS1, 24 h
Protocol: The Rat INS-1 cell line was obtained from UAB and maintained in RPMI-1640 (Invitrogen #11875) supplemented with 10% fetal bovine serum (FBS), 100 U/ml penicillin and […] streptomycin, 10 mM HEPES, 1 mM Sodium Pyruvate, 50 μM 2-Mercaptoethanol, and 11.1 mM Glucose in a humidified incubator with a 5% C02 atmosphere at 37° C. 4×10^4 cells per well were seeded to 96-well plate and incubated at 37° C. overnight. A subset of the cells were then cultured in medium with 5 mM Glucose for 24 hrs and then treated in medium with 25 mM glucose with or without compounds to be tested for another 24 hrs.
For the primary high throughput screening (HTS) assay, stably transfected, monoclonal INS-1 cells were split using Trypsin (2 ml per T75 flask) and seeded at a density of 10^4/well in a 384-well plate and incubated overnight at low, 5 mM glucose. The next day, the medium was changed to high glucose (25 mM) or high glucose plus the small molecules to be tested and luciferase assays were performed 24 h later. […] For secondary screens, total RNA was extracted from 96-well cultured cells using RNeasy 96 kit (Qiagen #74181) following the manufacturer's protocol using spin technology. Then a one-step qRT-PCR amplification was performed using QuantiFast SYBR Green RT-PCR kit (Qiagen #204154) and was carried out in a 10 μl reaction which consisted of 2 μl RNA, 0.5 μM each of primers (Rat TXNIP 5′ primer: […] (SEQ ID NO:1) and Rat TXNIP 3′ primer: […] (SEQ ID NO:2); Or Rat 18S rRNA 5′ primer: […] (SEQ ID NO:3) and Rat 18S rRNA 3′ primer: […]) (SEQ ID NO:4), 5 μl 2×SYBR Green Master Mix, 0.1 μl 10× QuantiFast RT Mix. The SYBR Green assay was performed using a LightCycler 480 II (Roche Applied Science) with an initial incubation at 50° C. for 10 min for RT followed by denaturation at 95° C. for 5 min. Forty cycles of amplification were performed using a thermal cycling profile of 95° C. for 10s, 60° C. for 30 s. Subsequently, a melting curve was recorded by holding at 95° C. for 60 s, cooling to 60° C. for 60 s, and then heating at 0.11° C./s up to 95° C. The data was collected and analyzed using the LightCycler 480 Software Release 1.5.0 SP3. The relative amount of TXNIP mRNA was normalized to 18 s rRNA level as a housekeeping gene, and the data was analyzed according to the 2^−ΔΔCT method (1). The transformed data was expressed as % inhibition and compound IC50 calculated by a 4-parameter logistic fit of the data using GraphPad Prism 7.

wild-type mice = experiment: Oral administration to wild-type mice (glucose, glucagon, hepatic glucose production, lipids); format: in vivo
Protocol: Compound #11a was administered for three weeks in the drinking water of wild-type mice at about 100 mg/kg/d.
Further studies of hepatic glucose production and whole body glucose turnover, i.e., peripheral glucose uptake into muscle and adipose tissue, were performed using hyperinsulinemic-euglycemic clamp studies.

[2] = INS-1 cell viability (Cell Titer-Glo, ATP); format: cell-based, Rat; settings: rat, INS-1 cells, 72 hrs treatment
Protocol: as §1

primary human islets = experiment: Cytokine-induced β-cell apoptosis in primary human islets; format: cell-based; settings: Type 1 diabetes associated cytokines
Protocol: (§2) Isolated primary human islets were cultured in the presence or absence of compound #11 (Table 1).

TXNIP [3] = experiment: TXNIP expression in isolated primary human islets; format: cell-based
Protocol: as §2

[4] = vs untreated db/db, hydrochloride
[5] = about 100 mg/kg/d in drinking water, three weeks

## CS(=O)(=O)NCC1CCCN(c2ncnc3ccc(C(F)(F)F)cc23)C1.Cl (centres unmarked) [Compound 11a, N-((1-(6-(trifluoromethyl)quinazolin-4-yl)piperidin-3-yl)methyl)methanesulfonamide hydrochloride]
Alpha TC1-6 cells
  glucagon secretion: decreased
STZ-diabetic mice; STZ (day 1-5) wild-type mice, oral compound day 5-15, vs untreated STZ mice
  blood glucose levels: significantly lower
STZ-diabetic mice; STZ-treated mice, oral 100 mg/kg/d, hydrochloride, 100 mg/kg/day
  body weight: no detrimental effect; also recorded: maintained a normal body weight
STZ-diabetic mice; STZ-treated mice, oral 100 mg/kg/d, throughout experiment, sacrifice and dissection
  detrimental effects or abnormalities: no detrimental effects or abnormalities
STZ-diabetic mice; oral 100 mg/kg/d starting after multiple low-dose STZ regimen
  protection against diabetes: effectively protected
STZ-diabetic mice; overtly diabetic STZ mice, gavage 100 mg/kg b.i.d or 30 mg/kg b.i.d., vs vehicle
  blood glucose levels: significantly decreased in a dose-dependent manner
db/db mice
  fasting serum glucagon levels: significant decrease
db/db mice; [4]
  blood glucose levels: significantly lower; also recorded: decreased significantly
  body weight: no significant effect; also recorded: no difference
INS-1 cells
  CC50: > 100 µM
TXNIP [1]; 1.5 μM compound, 24 hrs
  TXNIP % Inhibition at 1.5 μM: 35%
TXNIP [1]; 12.5 μM compound, 24 hrs
  TXNIP % Inhibition at 12.5 μM: 57%
wild-type mice; [5]
  blood glucose levels: small but significant decrease
  body weight: no change
  gross abnormalities in organs upon sacrifice: no gross abnormalities
wild-type mice; about 100 mg/kg/d in drinking water, vs control
  fasting serum glucagon levels: decreased
wild-type mice; hyperinsulinemic-euglycemic clamp, vs control
  basal hepatic glucose production: significant decrease
wild-type mice; oral, vs control
  liver triglyceride levels: two-fold lower
  serum non-esterified fatty acids: significantly lower
  serum triglycerides: significantly lower

## CS(=O)(=O)NCC1CCCN(c2ncnc3cccc(Cl)c23)C1 (centres unmarked) [Compound 6, N-((1-(5-chloroquinazolin-4-yl)piperidin-3-yl)methyl)methanesulfonamide]
[2]
  CC50 at 72 h: > 100 µM
TXNIP [1]; 1.5 μM compound
  inhibition at 1.5 µM: 29%
TXNIP [1]; 12.5 μM compound
  inhibition at 12.5 µM: 43%

## CS(=O)(=O)NCC1CCCN(c2nc(-c3ccccc3)nc3ccccc23)C1 (centres unmarked) [Compound 9, N-((1-(2-phenylquinazolin-4-yl)piperidin-3-yl)methyl)methanesulfonamide]
[2]
  CC50 at 72 h: 71 µM
TXNIP [1]; 1.5 μM compound
  inhibition at 1.5 µM: 0%
TXNIP [1]; 12.5 μM compound
  inhibition at 12.5 µM: 10%

## CS(=O)(=O)NCC1CCCN(c2ncnc3ccc(C(F)(F)F)cc23)C1 (centres unmarked) [Compound 11, N-((1-(6-(trifluoromethyl)quinazolin-4-yl)piperidin-3-yl)methyl)methanesulfonamide]
Primary human islets
  cytokine-induced β-cell apoptosis / death: inhibits; also recorded: protected
TXNIP [3]; Type 1 diabetes associated cytokines
  pro-inflammatory cytokine-induced TXNIP expression: protected
TXNIP [3]; high glucose, vs DMSO control
  glucose-induced TXNIP expression: inhibition of TXNIP expression; also recorded: specifically inhibited
[2]
  CC50 at 72 h: 56 µM
TXNIP [1]; 1.5 μM compound
  inhibition at 1.5 µM: 45%
TXNIP [1]; 12.5 μM compound
  inhibition at 12.5 µM: 53%

## CS(=O)(=O)NC1CCCN(c2ncnc3ccc(F)cc23)C1 (centres unmarked) [Compound 34, N-(1-(6-fluoroquinazolin-4-yl)piperidin-3-yl)methanesulfonamide]
[2]
  CC50 at 72 h: 33 µM
TXNIP [1]; 1.5 μM compound
  inhibition at 1.5 µM: 56%
TXNIP [1]; 12.5 μM compound
  inhibition at 12.5 µM: 61%

## CS(=O)(=O)NCC1CCCN(c2ncnc3ccc(C(=O)O)cc23)C1 (centres unmarked) [Compound 19, 4-(3-(methylsulfonamidomethyl)piperidin-1-yl)quinazoline-6-carboxylic acid]
[2]
  CC50 at 72 h: > 100 µM
TXNIP [1]; 1.5 μM compound
  inhibition at 1.5 µM: 0%
TXNIP [1]; 12.5 μM compound
  inhibition at 12.5 µM: 5%

## CS(=O)(=O)NCC1CN(c2ncnc3ccc(F)cc23)CCO1 (centres unmarked) [Compound 46, N-((4-(6-fluoroquinazolin-4-yl)morpholin-2-yl)methyl)methanesulfonamide]
[2]
  CC50 at 72 h: > 100 µM
TXNIP [1]; 1.5 μM compound
  inhibition at 1.5 µM: 0%
TXNIP [1]; 12.5 μM compound
  inhibition at 12.5 µM: 55%

## CS(=O)(=O)NC1CCCN(c2ncnc3cc(F)c(C#N)cc23)C1 (centres unmarked) [Compound 37, N-(1-(6-cyano-7-fluoroquinazolin-4-yl)piperidin-3-yl)methanesulfonamide]
[2]
  CC50 at 72 h: > 100 µM
TXNIP [1]; 1.5 μM compound
  inhibition at 1.5 µM: 0%
TXNIP [1]; 12.5 μM compound
  inhibition at 12.5 µM: 24%

## CC(C)N(CC1CCCN(c2ncnc3ccccc23)C1)S(C)(=O)=O (centres unmarked) [Compound 40, N-isopropyl-N-((1-(quinazolin-4-yl)piperidin-3-yl)methyl)methanesulfonamide]
[2]
  CC50 at 72 h: 70 µM
TXNIP [1]; 1.5 μM compound
  inhibition at 1.5 µM: 14%
TXNIP [1]; 12.5 μM compound
  inhibition at 12.5 µM: 46%

## CS(=O)(=O)NCC1CCCN(c2ncnc3ccc(N4CCOCC4)cc23)C1 (centres unmarked) [Compound 24, N-((1-(6-morpholinoquinazolin-4-yl)piperidin-3-yl)methyl)methanesulfonamide]
[2]
  CC50 at 72 h: > 100 µM
TXNIP [1]; 1.5 μM compound
  inhibition at 1.5 µM: 20%
TXNIP [1]; 12.5 μM compound
  inhibition at 12.5 µM: 20%

## CS(=O)(=O)NC1CCCN(c2ncnc3cc(F)c(C(F)(F)F)cc23)C1 (centres unmarked) [Compound 39, N-(1-(7-fluoro-6-(trifluoromethyl)quinazolin-4-yl)piperidin-3-yl)methanesulfonamide]
[2]
  CC50 at 72 h: > 100 µM
TXNIP [1]; 1.5 μM compound
  inhibition at 1.5 µM: 7%
TXNIP [1]; 12.5 μM compound
  inhibition at 12.5 µM: 28%

## CC(C)Nc1nc(N2CCCC(CNS(C)(=O)=O)C2)c2ccccc2n1 (centres unmarked) [Compound 16, N-((1-(2-(isopropylamino)quinazolin-4-yl)piperidin-3-yl)methyl)methanesulfonamide]
[2]
  CC50 at 72 h: > 100 µM
TXNIP [1]; 1.5 μM compound
  inhibition at 1.5 µM: 0%
TXNIP [1]; 12.5 μM compound
  inhibition at 12.5 µM: 33%
